Tests used:
[1] = 31P NMR phosphate peak widening by free peptide in intestinal fluid simulants; type: binding; conditions: for phosphate peak widening: peptide 13.1 mM, phosphate 2.6 mM
From the text: ^31P NMR-NMR relaxation is the process by which excited magnetic state nuclei return to their equilibrium distribution. At the start of an NMR experiment, the nuclei are “lined up” with the external magnetic field. When an electromagnetic RF field is activated on these nuclei, they resonate at a characteristic resonance frequency, and the NMR signal is created. At that instant, all the nuclei are in phase and coherent. However, due to small differences in their resonance frequencies, they will begin to dephase. The time it takes for the nuclei to dephase is measured by T2 the so-called spin-spin relaxation time. T2 is inversely proportional to Δω, the width of the resonance peak in the spectra measured at half the maximum height: Δω=2/T2. The more slowly a macromolecule tumbles, the shorter its T2; thus, big molecules have broader resonance peaks than small molecules. An increase in molecular size due to interaction or reduced mobility affects the T2 relaxation time and is manifested by widening the NMR signal.
In this study, phosphate-binding experiments of free (unattached to silica) peptides in intestinal fluid simulants as function of the surrounding pH were examined. Binding was determined by the widening of the relevant phosphate peaks in phosphorus NMR (^31P NMR) spectra. These experiments aimed to investigate the effect of the background solution containing many components on the ability of the peptide to bind phosphate. ^31P NMR experiments were preferred over standard ^1H NMR since in the former only one (phosphate) or at most two (phosphate and phospholipid) peaks are detected as opposed to the multitude of frequently overlapping, peaks in the spectra of the latter. […]
Samples were prepared by mixing the required amounts of phosphate stock solution, and FAS or FES solutions into one 1.5 mL Eppendorf tube, and phosphate stock, peptide stock, and FAS or FES solution into a second similar tube. in. The pH was measured and adjusted to the desired value as described above. […] The contents of each Eppendorf tube were analyzed separately by NMR as described below. […]

[2] = 31P NMR phospholipid peak widening by free peptide in FES solution; type: binding
From the text: ^31P NMR-NMR relaxation is the process by which excited magnetic state nuclei return to their equilibrium distribution. At the start of an NMR experiment, the nuclei are “lined up” with the external magnetic field. When an electromagnetic RF field is activated on these nuclei, they resonate at a characteristic resonance frequency, and the NMR signal is created. At that instant, all the nuclei are in phase and coherent. However, due to small differences in their resonance frequencies, they will begin to dephase. The time it takes for the nuclei to dephase is measured by T2 the so-called spin-spin relaxation time. T2 is inversely proportional to Δω, the width of the resonance peak in the spectra measured at half the maximum height: Δω=2/T2. The more slowly a macromolecule tumbles, the shorter its T2; thus, big molecules have broader resonance peaks than small molecules. An increase in molecular size due to interaction or reduced mobility affects the T2 relaxation time and is manifested by widening the NMR signal. […]
The first sample used for FES solution reference was composed of 1 mL FES solution which was placed in a 1.5 mL Eppendorf tube. […] The pH was measured using a pH electrode (Mettler Toledo, SevenComplex) and adjusted to the desired value by dropwise addition of HCl or NaOH solutions. […] The contents of each Eppendorf tube were analyzed separately by NMR as described below.
Solution ^31P NMR data were collected on a Bruker Avance III 400 MHz spectrometer (Bruker BioSpin, Germany). […] A capillary tube insert filled with phosphoric acid solution in D2O (10% v/v phosphoric acid in D2O/H2O) was used for calibration and inserted into the NMR tube that contained the measured sample. […] NMR data was analyzed using TopSpin software (Bruker).
The capability of a free unbound peptide to capture phosphate in the intestinal simulant solutions was examined using P NMR. […] As discussed above, binding is qualitatively evaluated by the decrease in T2 relaxation, or the corresponding widening of the peak associated with the phosphorus nuclei in the molecule and calculated as follows: […]

[3] = Colorimetric (molybdenum blue) phosphate binding in intestinal and gastric fluid simulants; conditions: pH=6 or pH=7.5 (clinical PhB at pH=7.5)
From the text: The binding efficiency of the SiO2-CysHex particles in intestinal and digestive fluid simulants was examined by a colorimetric method. The procedure was based on the determination of the amount of uncaptured phosphate from a solution of known initial phosphate concentration. A spectrophotometric assay referred to as the molybdenum blue reaction was employed. It emits a blue color whose intensity is linearly proportional to the amount of phosphate present in the solution allowing by measurement of color intensity and proper calibration, to determine phosphate concentration. The reaction involves the following two steps: • 1. PO4^3−+12(NH4)2MoO4+24H^+→(NH4)3PO4·12MoO3+21NH4^++12H2O • 2. […]
For this experiment, a phosphate assay kit (Sigma-Aldrich) with a stated concentration range between 0.005 mM and 0.025 mM phosphate was used. The kit included a 10 mM phosphate standard solution and a coloring reagent that reacts with phosphates to form a complex that could be measured and quantified by UV-VIS absorbance spectroscopy. The phosphate standard was used to prepare a calibration curve between the absorbance intensity at a wavelength of 650 nm and phosphate concentrations. […]
A volume of 20 μL of the supernatant filtrate (sec 4.3.3.1.2), 180 μL DI water, and 30 μL coloring reagent were added to a 96 well plate. Two duplicates of each sample were measured, and the resulting values were averaged. […]

Row | Compound | phosphate peak widening ([1]; FAS solution) | phosphate peak widening ([1]; FES solution) | pH range in which the peptide captures phosphate ([1]; only in FES) | pH of lowest phospholipid binding ([2]; absence of phosphate) | phospholipid binding ([2]; absence of phosphate, 6.5 peptide molecules per phospholipid molecule, entire relevant pH range) | phospholipid peak width (ratio) ([2]; pH=6, peptide 13.1 mM and phosphate 2.6 mM present, phospholipid 2 mM, average of three measurements) | Phosphate binding effectiveness ([3]; FAS) [mg phosphate/gr PhB] | Phosphate binding effectiveness ([3]; FES) [mg phosphate/gr PhB]
1 | Cys-SGAGKT [CysHex] | no widening | pH dependent and is maximal at pH values commensurate with values in the GI tract | 7-8 | ~6 | binds the phospholipid quite effectively | 0.93±0.15 |  | 
2 | O=C([O-])[O-].O=C([O-])[O-].O=C([O-])[O-].[La+3].[La+3] [Lanthanum, Lanthanum carbonate] |  |  |  |  |  |  | 4.1 | 0.9
